Test results reported in patent US20140066394A1, “Substituted 6-(Benzylamino) Purine Riboside Derivatives, Use Thereof and Compositions Containing These Derivatives” (Biopatterns, S.R.O, priority 2009, published 2014).

Tests used:
[1] = test system: breast carcinoma cell line MCF-7; experiment: In vitro cytotoxicity, Calcein AM assay, MCF7; assay type: cell-based, human; details: Homo sapiens, MCF7, 72 hours
Text: Low cytotoxicity of the compounds is the major property determining the cosmetic use. One of the parameters used, as the basis for cytotoxicity assays, is the metabolic activity of viable cells. For example, a microtiter assay, which uses the Calcein AM, is now widely used to quantitate cell proliferation and cytotoxicity. For instance, this assay is used in drug screening programs and in chemosensitivity testing. Because only metabolically active cells cleave Calcein AM, these assays detect viable cells exclusively. The quantity of […] Calcein AM corresponds to the number of vital cells in the culture.
Human T-lymphoblastic leukemia cell line CEM; promyelocytic HL-60 and monocytic U937 leukemias; breast carcinoma cell lines MCF-7, BT549, MDA-MB-231; glioblastoma U87MG cells; cervical carcinoma cells HELA; sarcoma cells U2OS and Saos2; hepatocellular carcinoma HepG2; mouse fibroblasts NIH3T3; mouse immortalized bone marrow macrophages B2.4 and B10A.4; P388D1 and L1210 leukemia; B16 and B16F10 melanomas; human osteosarcoma HOS; human myeloid leukemia K-562; human skin melanoma G-361 were used for routine screening of compounds. The cells were maintained in Nunc/Corning 80 cm^2 plastic tissue culture flasks and cultured in cell culture medium (DMEM with 5 g/l glucose, 2 mM glutamine, 100 U/mL penicillin, 100 μg/mL streptomycin, 10% fetal calf serum and sodium bicarbonate).
The cell suspensions that were prepared and diluted according to the particular cell type and the expected target cell density (2.500-30.000 cells per well based on cell growth characteristics) were added by pipette ([…]) into 96/well microtiter plates. Inoculates were allowed a pre-incubation period of 24 hours at 37° C. and 5% CO2 for stabilisation. Four-fold dilutions of the intended test concentration were added at time zero in 20 μl aliquots to the microtiter plate wells. Usually, the compound tested was evaluated at six 4-fold dilutions. In routine testing, the highest well concentration was 100 μM, but it can be the matter of change dependent on the agent. All drug concentrations were examined in duplicates. Incubations of cells with the tested compounds lasted for 72 hours at 37° C., in 5% CO2 atmosphere and 100% humidity. At the end of the incubation period, the cells were assayed by using Calcein AM. Ten microliters of the stock solution were pipetted into each well and incubated for 1 hour. Fluorescence (FD) was measured with the Labsystem FIA Reader Fluoroscan Ascent (UK). The tumour cell survival (GI50) was calculated using the following equitation: TCS=(FDdrug exposed well/mean FDeontrol wells)×100%. The GI50 value, the drug concentration lethal to 50% of the tumour cells, was calculated from the obtained dose response curves.
Zero cytotoxicity of the novel compounds is the basic prerequisite for agricultural and tumor-unrelated applications. The cytoxicity of the novel compounds was tested on a panel of cell lines of different histogenetic and species origin (Table 9). We show herein that equal activities were found in all tumour cell lines tested, however, the non-malignant cells, e.g. NIH3T3 fibroblasts and normal human lymphocytes, were resistant to 2,6-disubstituted purine ribosides induced cytotoxicity. The compounds listed in Tab. 9 can be divided into 2 groups. The first group contains “classical cytokinins” represented by 6-substituted purine ribosides (which are known in the prior art). The second group contains the novel 2,6-disubstituted derivatives of these compounds. […] GI50 for NIH3T3 fibroblasts and normal human lymphocytes was always higher than 100 μM. The novel derivatives show no toxicity to normal and tumour cells in concentrations about 100 μM and thus are more suitable for agricultural applications than “classical cytokinins” (6-substituted purine riboside derivatives).

neutrophils = experiment: ANCA stimulated neutrophil degranulation (MPO release, ELISA); assay type: cell-based; details: Homo sapiens, 0.5 h, TNFα primed, MPO release over 30 minute period (FIG. 10), read-out: IC50 of inhibition of ANCA stimulated neutrophil degranulation
Protocol: FIG. 10 Inhibition of ANCA induced neutrophil degranulation by compound 10. Neutrophils were cultured at 2×10^6 cells/ml in RPMI1640 medium containing human serum antibiotics and 20 ng/ml TNFα for 10 minutes prior to addition of ANCA (1=MPO ANCA; 2=PR3 ANCA) and a range of concentrations of compound 10. Release of MPO was monitored after a 30 minute period by ELISA.
ANCA are predominantly IgG autoantibodies directed against constituents of primary granules of neutrophils (PR3 and MPO). ANCA associated vasculitis is the most common primary systemic small-vessel vasculitis in adults. […] Neutrophils were cultured for 10 hours in RPMI1640 medium containing 2% human AB serum, 2 mM L-glutamine and antibiotics (100 U/ml penicillin, […] streptomycin) and their apoptosis determined by staining with Giemsa stain and observing an apoptotic morphology by light microscopy. […] The ability of compound 10 to inhibit ANCA-induced neutrophil inflammatory functions was also determined Neutrophils were cultured in RPMI1640 medium containing 2% human AB serum, 2 mM L-glutamine and antibiotics (100 U/ml penicillin, […] streptomycin). […] ANCA stimulated degranulation of neutrophils was assessed by release of myeloperoxidase in to the medium over a 30 minute period, with MPO measured by ELISA. […] HUVEC viability was determined by trypan blue staining and light microscopy.

- IC50 (neutrophils): 3000 nM
SMILES: COc1cccc(CNc2nc(Cl)nc3c2ncn3C2OC(CO)C(O)C2O)c1O (centres unmarked) [Compound 10, 2-Chloro-6-(2-hydroxy-3-methoxybenzylamino)purine riboside]
- GI50 [1]: > 100000 nM
